Data published in PMC12529164, “Design, Synthesis, Structure–Activity Relationships, and Preliminary Anticancer Properties of Menthol-Modified Coumarin Esters and 3,4-Dihydrocoumarin Derivatives” (ACS Omega, 2025).
Where two headings read alike, the source gives them in different places. One block for each compound: values may come before it.

Assays:
MDA-MB-231 = assay: MTT cytotoxicity assay; assay type: cell-based, human; details: for IC50: MDA-MB-231, MTT, 72 h, human breast adenocarcinoma; for SI MDA-MB-231: SI = IC50 for normal cell line (HaCaT)/IC50 cancer cell line
Description: (§1) The human primary (SW480) and metastatic (SW620) colon cancer, metastatic prostate cancer (PC3), breast adenocarcinoma (MDA-MB-231) and human immortal keratinocyte (HaCaT) cell lines were recruited from the American Type Culture Collection (ATCC). The cells were cultured in the recommended medium according to protocols (RPMI 1640 for PC3, MEM for SW480 and SW620, as well as DMEM for MDA-MB-231 and HaCaT cells) with addition of 10% FBS, penicillin (100 U/mL), and streptomycin (100 μg/mL) and cultured in 37 °C/5% CO2 in a humidified incubator. Then, the cells were passaged at a confluence of 80–90% by a treatment with 0.25% trypsin (Gibco Life Technologies) and used for studies.
(§2) They were added to 96-well plates with seeded normal and cancer cells (1 × 10^4 cells per well) and incubated for 72 h. MTT analysis was performed according to a previous study.

PC3 [1] = assay: MTT cytotoxicity assay; assay type: cell-based, human; details: for IC50: PC-3, MTT, 72 h, human metastatic prostate cancer; for SI PC3: SI = IC50 for normal cell line (HaCaT)/IC50 cancer cell line
Description: as §1, §2

SW480 = assay: MTT cytotoxicity assay; assay type: cell-based, human; details: for SI SW480: SI = IC50 for normal cell line (HaCaT)/IC50 cancer cell line; for IC50: SW480, MTT, 72 h, human primary colon cancer
Description: as §1, §2

SW620 [2] = assay: MTT cytotoxicity assay; assay type: cell-based, human; details: for SI SW620: SI = IC50 for normal cell line (HaCaT)/IC50 cancer cell line; for IC50: SW-620, MTT, 72 h, human metastatic colon cancer
Description: as §1, §2

HaCaT [3] = assay: MTT cytotoxicity assay, normal cells; assay type: cell-based; details: 72 h, human immortal keratinocytes (normal cells); for IC50: HaCaT
Description: as §1, §2

[4] = tested on: tested cancer cell lines (SW480, SW620, PC3, MDA-MB-231); assay: MTT assay, mean over tested cancer cell lines; assay type: cell-based; details: Homo sapiens, mean of the four cancer cell lines
Description: They were added to 96-well plates with seeded normal and cancer cells (1 × 10^4 cells per well) and incubated for 72 h. MTT analysis was performed according to a previous study. […]

Trypan blue assay = assay type: cell-based, human; details: human, HaCaT cells, compound at IC50, 72 h, mean
Description: (§3) The total cell count was assessed by trypan blue exclusion dye assay using automated cell counter (Countess Invitrogen). Untreated cells were used as the control. Each experiment was repeated 5 times.

HaCaT [5] = assay: Trypan blue assay; assay type: cell-based, human; details: compound at IC50, 72 h; for cell number: mean; for reduction of number of cells: vs control
Description: as §3

PC3 [6] = assay: Trypan blue assay; assay type: cell-based, human; details: PC3, compound at IC50, 72 h
Description: as §3

HaCaT [7] = assay: Annexin V-FITC/PI flow cytometry; assay type: cell-based, human; details: compound at IC50, 72 h, mean
Description: (§4) The apoptotic and necrotic cells treated with derivatives 2b, 4a, 4b were detected using FITC Annexin V Apoptosis Detection Kit I (BD Biosciences Pharmingen). Briefly, cells (2 × 10^5 cells/well) were seeded in 6-well plates in supplemented medium. […] Then cells were harvested, washed, and labeled with Annexin V-FITC and propidium iodide (PI) according to the manufacturer’s protocol. The stained cells were analyzed by flow cytometry. The cells were identified as early apoptotic (Annexin V+/PI−) or late apoptotic/necrotic (Annexin V+/PI+).

PC3 [8] = assay: Annexin V-FITC/PI flow cytometry; assay type: cell-based, human; details: PC3, compound at IC50, 72 h, mean
Description: as §4

IL-6 in HaCaT cells = assay: Interleukin-6 ELISA; assay type: cell-based, human; details: compound at IC50, 72 h; for IL-6 concentration: ELISA
Description: (§5) The concentration of Interleukin-6 (IL-6) was measured in cell culture supernatant using Interleukin IL-6 High Sensitivity ELISA kit (Diaclon SAS, Besancon Cedex, France). Cells (1 × 10^5 cells/well) were seeded in 12-well plates with medium for 24 h. […] After this incubation, the supernatants were collected and 100 μL of supernatant samples, control solutions and blank were added to precoated ELISA plate with the preceding plotting of the standard curve. Then 50 μL of diluted biotinylated antihuman interleukin-6 antibody was added and incubated at room temperature for 3 h. Afterward, the plate was washed three times and 100 μL streptavidin-HRP solution was added to each well. After 30 min incubation, the plate was washed again three times and 100 μL of tetramethylbenzidine (TMB) solution was added to each well. The plate was incubated for 15 min in the dark. The reaction was stopped by adding 100 μL of H2SO4 solution. The absorbance was estimated using a spectrophotometer at 450 nm (Microplate Spectrophotometer Thermo Scientific Multiskan GO).

IL-6 in PC3 cells = assay: Interleukin-6 ELISA; assay type: cell-based, human; details: PC3, compound at IC50, 72 h
Description: as §5

Danio rerio larvae = assay: In vivo toxicity, maximum tolerated concentration; details: zebrafish larvae, immersion from 96 hpf for 18 h (120 hpf), 5-150 μM tested
Description: Zebrafish (Danio rerio, strain AB) was maintained at the Experimental Medicine Center, Medical University of Lublin, Poland. Embryos and larvae up to 120 h postfertilization (hpf) were kept under generally accepted environmental conditions, i.e., in incubators at 28.5 °C, with 14/10 h light/dark cycles. The embryos of the Zebrafish were harvested after the natural reproduction process.
Three compounds showing low IC50 values determined on cancer lines in in vitro tests (2b, 4a) and compound 1a characterized by low cytotoxicity were used for in vivo tests. We also conducted research for coumarin. These compounds were dissolved in dimethyl sulfoxide (DMSO) (Sigma-Aldrich, St. Louis, MO, USA) and diluted in the zebrafish medium (pH 7.1–7.3; 5.0 mM NaCl, 0.17 mM KCl, 0.33 mM CaCl2, 0.33 mM MgSO4) to achieve a final DMSO concentration of 1% w/v. Twenty-four hpf zebrafish embryos were investigated under a light microscope, and […] fertilized embryos (n = 60) were selected and transferred into 48-well plates (5 embryos per well). Larvae were incubated in 1 mL of the zebrafish medium for up to 3 days after fertilization.
On the fourth day postfertilization (96 hpf), the larvae (10 individuals per group) were incubated in solutions of coumarin or its three derivatives (1a, 2b, 4a) at selected concentrations (5, 10, 25, 50, 75, 100, 150 μM), along with control solutions: negative control (zebrafish medium) and solvent control (1% DMSO in zebrafish medium). The maximum tolerated concentration (MTC) was calculated to assess the toxicity of the compounds and extracts. […] Larvae were individually inspected under a microscope for signs of acute locomotor dysfunction, including a weak reaction to light tail stimulation with a fine needle, disrupted posture, body deformities, protruding eyes, slowed or absent heartbeat, and mortality.

SW620 [9] = assay: Trypan blue assay; assay type: cell-based, human; details: SW620, compound at IC50, 72 h
Description: as §3

SW620 [10] = assay: Annexin V-FITC/PI flow cytometry; assay type: cell-based, human; details: SW620, compound at IC50, 72 h, mean
Description: as §4

IL-6 in SW620 cells = assay: Interleukin-6 ELISA; assay type: cell-based, human; details: SW620, compound at IC50, 72 h
Description: as §5

[11] = Table S7, >100 entered as 100, read-out: mean anticancer IC50
[12] = read-out: average IC50 against tested cancer cell lines

IC50 [4, 11]: 28.7 µM | IC50 [4, 12]: 28.7 µM
SMILES: COc1cccc2c1OC(=O)C(C(=O)O[C@@H]1C[C@H](C)CC[C@H]1C(C)C)C2P(=O)(c1ccccc1)c1ccccc1 (mixture of isomers) [Compound 4b, (1R,2S,5R)-2-Isopropyl-5-methylcyclohexyl-4-(diphenylphosphoryl)-8-methoxy-2-oxochromane-3-carboxylate]
IC50 (MDA-MB-231): 47.6 ± 4.73 µM | SI MDA-MB-231 (MDA-MB-231): 0.58 | IC50 (PC3 [1]): 9.9 ± 1.42 µM | SI PC3 (PC3 [1]): 2.78 | SI SW480 (SW480): 0.73 | IC50 (SW480): 37.4 ± 2.45 µM | SI SW620 (SW620 [2]): 1.39 | IC50 (SW620 [2]): 19.8 ± 0.63 µM | IC50 (HaCaT [3]): 27.6 ± 3.12 µM | viability at 72 h (Trypan blue assay): 98.3% | cell number (HaCaT [5]): 5.23 x106 | reduction of number of cells (HaCaT [5]): 16.6% | cell number (PC3 [6]; mean): 4.26 x106 | viability (%) (PC3 [6]; mean): 94% | reduction of number of live cells (PC3 [6]; vs control): 35.3% | Early apoptosis [%] (HaCaT [7]): 2.55% | Late apoptosis [%] (HaCaT [7]): 0.85% | Necrosis [%] (HaCaT [7]): 0.45% | Early apoptosis [%] (PC3 [8]): 10.50% | Late apoptosis [%] (PC3 [8]): 3.90% | Necrosis [%] (PC3 [8]): 0.20% | IL-6 concentration (IL-6 in HaCaT cells): 10.5 ± 0.94 pg/mL | reduction of IL-6 concentration (IL-6 in HaCaT cells; vs control): did not alter IL-6 secretion | IL-6 concentration (IL-6 in PC3 cells; ELISA): 0.9 ± 0.03 pg/mL | reduction of IL-6 level (IL-6 in PC3 cells; vs control): 79.2%

SMILES: CC(C)[C@@H]1CC[C@@H](C)C[C@H]1OC(=O)c1cc2ccccc2oc1=O [Compound 1a, (1R,2S,5R)-2-Isopropyl-5-methylcyclohexyl 2-oxo-2H-chromene-3-carboxylate]
IC50 (MDA-MB-231): 76.5 ± 8.85 µM | SI MDA-MB-231 (MDA-MB-231): 1.08 | IC50 (PC3 [1]): 57.8 ± 3.87 µM | SI PC3 (PC3 [1]): 1.43 | SI SW480 (SW480): 1.17 | IC50 (SW480): 70.5 ± 2.31 µM | SI SW620 (SW620 [2]): 1.44 | IC50 (SW620 [2]): 57.3 ± 5.36 µM | IC50 (HaCaT [3]): 82.7 ± 3.5 µM | IC50 [4, 11]: 65.5 µM | IC50 [4, 12]: 65.5 µM | maximum tolerated concentration (MTC) (Danio rerio larvae): 0 µM

SMILES: CCOP(=O)(OCC)c1cc2cccc(OC)c2oc1=O [Compound 2b, Diethyl (8-Methoxy-2-oxo-2H-chromen-3-yl)phosphonate]
IC50 (MDA-MB-231): > 100 µM | SI MDA-MB-231 (MDA-MB-231): 1 | IC50 (PC3 [1]): > 100 µM | SI PC3 (PC3 [1]): 1 | SI SW480 (SW480): 1 | IC50 (SW480): > 100 µM | SI SW620 (SW620 [2]): 9.8 | IC50 (SW620 [2]): 10.2 ± 1.63 µM | IC50 HaCaT (HaCaT [3]): did not show any cytotoxic effects | IC50 (HaCaT [3]): > 100 µM | IC50 [4, 12]: > 77.5 µM | viability at 72 h (Trypan blue assay): 94.7% | cell number (HaCaT [5]): 5.66 x106 | reduction of number of cells (HaCaT [5]): below 10% | cell number (SW620 [9]; mean): 2.26 x106 | viability (%) (SW620 [9]; mean): 98.66% | reduction of number of live cells (SW620 [9]; vs control): 36.4% | Early apoptosis [%] (HaCaT [7]): 2.60% | Late apoptosis [%] (HaCaT [7]): 1.30% | Necrosis [%] (HaCaT [7]): 0.30% | Necrosis [%] (SW620 [10]): 0.60% | IL-6 concentration (IL-6 in HaCaT cells): 11.3 ± 0.59 pg/mL | increase in interleukin level (IL-6 in HaCaT cells; vs control): 10.7% | IL-6 concentration (IL-6 in SW620 cells; ELISA): 2.1 ± 0.22 pg/mL | reduction of IL-6 level (IL-6 in SW620 cells; vs control): 33.5%

IC50 [4, 11]: > 100 µM
SMILES: CCOC(=O)C1C(=O)Oc2ccccc2C1P(=O)(c1ccccc1)c1ccccc1 (centres unmarked) [Compound 4c, Ethyl 4-(Diphenylphosphoryl)-2-oxochroman-3-carboxylate]
IC50 (MDA-MB-231): > 100 µM | SI MDA-MB-231 (MDA-MB-231): 1 | IC50 (PC3 [1]): > 100 µM | SI PC3 (PC3 [1]): 1 | SI SW480 (SW480): 1 | IC50 (SW480): > 100 µM | SI SW620 (SW620 [2]): 1 | IC50 (SW620 [2]): > 100 µM | IC50 (HaCaT [3]): > 100 µM
